The test addresses 3CL Protease (Severe acute respiratory syndrome coronavirus 2, UniProt P0DTD1). As to the kind of experiment: 3CL Protease enzymatic activity assay (BPS Bioscience Assay Kit #78043-1, fluorescence). The class given is biochemical, SARS-CoV-2. To be noted: Table A; 30 min preincubation, 40 μM substrate, 4 hours at room temperature; read-out: IC50, nM (3CL Protease enzymatic activity). How it is done:
For determination of 3CL Protease enzymatic activity was used Assay Kit of BPS Bioscience, San Diego, CA (Catalog #78043-1).
All samples and controls should be tested in duplicate. • 1) Just before use, dilute 0.5 M DTT 500 times into the 3CL Protease Assay Buffer to obtain a DTT concentration of 1 mM. For example, add 10 μl of 0.5 M DTT to 5 ml of assay buffer. Prepare enough DTT-containing buffer as required for the assay. Store the remaining assay buffer at −20° C. • 2) Thaw the 3CL Protease on ice. Briefly spin the tube containing the enzyme to recover the full content of the tube. Note: 3CL Protease enzyme is sensitive to freeze/thaw cycles. […] Note: The exact concentration and volume of enzyme is lot-specific and will be indicated on the tube. Calculate required dilution from the information in the tube. It may be desirable to dilute the enzyme serially to avoid using large amounts of protease assay buffer for the dilution. • 4) Add 30 μl of diluted 3CL Protease to the wells designated as “Positive Control,” “Inhibitor Control,” and “Test Inhibitor.” Add 30 μl of Assay Buffer (containing 1 mM DTT) to the “Blank” wells. • 5) Dilute the 50 μg GC376 in 200 μl of Assay Buffer to obtain a 500 μM solution. Add 10 μl of GC376 (500 μM) to the wells labeled “Inhibitor Control”. Aliquot and store the remaining solution at −80° C. • 6) Prepare the Test Inhibitor. The final concentration of DMSO in the assay should not exceed 1%. If the Test Inhibitor is dissolved in DMSO, make a 100-fold higher concentration of the compound than the highest desired concentration. Then make a 20-fold dilution in 1× Assay Buffer (containing DTT). At this step the compound concentration is 5-fold higher than the final concentration. If the test inhibitor is dissolved in water, make a 5-fold higher concentration of the test compound than the final desired concentration in the Assay buffer (containing DTT). Add 10 μl of Test Inhibitor to each well designated “Test Inhibitor”. • 7) Diluent Solution (no inhibitor): add 10 μl of assay buffer (if the test compound is water soluble and was diluted in assay buffer) or 10 μl of 5% DMSO diluted in assay buffer (if DMSO was used to dissolve the test inhibitor) to “Blank” and “Positive Control” wells.
• 8) Preincubate for 30 min at room temperature with slow shaking. • 9) Dilute the 25 μl of 3CL Protease substrate (10 mM) in 1.25 ml of the Assay Buffer containing DTT, to make a […] solution. The final concentration of the 3CL Protease substrate in a 50 μl reaction is 40 μM. • 10) Start the reaction by adding 10 μl of the substrate solution to all the wells. Seal the plate with the plate sealer and incubate for 4 hours at room temperature with slow shaking. • 11) Measure the fluorescence intensity in a microtiter plate-reader fluorometer (Tecan Spark Cyto) capable of excitation at a wavelength 360 nm and detection of emission at a wavelength 460 nm. The fluorescence intensity can also be measured kinetically. The “Blank” value is subtracted from all other values. • The % inhibition was then used to calculate the IC50 values.

Consider `CC1(C)CCc2[nH]c(=O)c(CC(C#N)NC(=O)[C@@H]3C4[C@H](CN3C(=O)[C@@H](NS(C)(=O)=O)C(C)(C)C)C4(C)C)cc2C1` (stereo in doubt) [Compound 128, (1R,2S,5S)—N-(1-Cyano-2-(6,6-dimethyl-2-oxo-1,2,5,6,7,8-hexahydroquinolin-3-yl)ethyl)-3-((S)-3,3-dimethyl-2-(methylsulfonamido)butanoyl)-6,6-dimethyl-3-azabicyclo[3.1.0]hexane-2-carboxamide], for which the IC50 – broadly, the midpoint of a concentration-inhibition curve – lay in the range of 500 to 1000 nM.

With `Cc1cc2cc(CC(C#N)NC(=O)[C@@H]3C4[C@H](CN3C(=O)[C@@H](NC(=O)C(F)(F)F)C(C)(C)C)C4(C)C)c(=O)[nH]c2cc1C` (stereo in doubt) [Compound 145, (1R,2S,5S)—N-(1-cyano-2-(6,7-dimethyl-2-oxo-1,2-dihydroquinolin-3-yl)ethyl)-3-((S)-3,3-dimethyl-2-(2,2,2-trifluoroacetamido)butanoyl)-6,6-dimethyl-3-azabicyclo[3.1.0]hexane-2-carboxamide], the IC50 was in the range of 50 to 100 nM.

For `Cc1ccc2cc(CC(C#N)NC(=O)[C@@H]3C4[C@H](CN3C(=O)[C@@H](NC(=O)C(F)(F)F)C(C)(C)C)C4(C)C)c(=O)[nH]c2c1` (stereo in doubt) [Compound 146, (1R,2S,5S)—N-(1-Cyano-2-(7-methyl-2-oxo-1,2-dihydroquinolin-3-yl)ethyl)-3-((S)-3,3-dimethyl-2-(2,2,2-trifluoroacetamido)butanoyl)-6,6-dimethyl-3-azabicyclo[3.1.0]hexane-2-carboxamide], the IC50 lay in the range of 50 to 100 nM.

Consider `Cc1ccc2[nH]c(=O)c(C[C@@H](C#N)NC(=O)[C@@H]3C4[C@H](CN3C(=O)[C@@H](NS(C)(=O)=O)C(C)(C)C)C4(C)C)cc2c1` (stereo in doubt) [Compound 147, (1R,2S,5S)—N-[(1S)-1-cyano-2-(6-methyl-2-oxo-1H-quinolin-3-yl)ethyl]-3-[(2S)-2-(methanesulfonamido)-3,3-dimethyl-butanoyl]-6,6-dimethyl-3-azabicyclo[3.1.0]hexane-2-carboxamide], for which the IC50 is less than 50 nM.

Turning to `Cc1ccc2[nH]c(=O)c(C[C@H](C#N)NC(=O)[C@@H]3C4[C@H](CN3C(=O)[C@@H](NS(C)(=O)=O)C(C)(C)C)C4(C)C)cc2c1` (stereo in doubt) [Compound 148, (1R,2S,5S)—N-[(1R)-1-cyano-2-(6-methyl-2-oxo-1H-quinolin-3-yl)ethyl]-3-[(2S)-2-(methanesulfonamido)-3,3-dimethyl-butanoyl]-6,6-dimethyl-3-azabicyclo[3.1.0]hexane-2-carboxamide], the IC50 is no less than 1000 nM.

`Cc1ccc2[nH]c(=O)c(CC(C#N)NC(=O)[C@@H]3C4[C@H](CN3C(=O)[C@@H](Nc3nc(C)cs3)C(C)(C)C)C4(C)C)cc2c1` (stereo in doubt) [Compound 151, (1R,2S,5S)—N-(1-Cyano-2-(6-methyl-2-oxo-1,2-dihydroquinolin-3-yl)ethyl)-3-((S)-3,3-dimethyl-2-((4-methylthiazol-2-yl)amino)butanoyl)-6,6-dimethyl-3-azabicyclo[3.1.0]hexane-2-carboxamide]: the IC50 is 500 to 1000 nM.

`Cc1ccc2[nH]c(=O)c(CC(C#N)NC(=O)[C@@H]3C4[C@H](CN3C(=O)[C@@H](Nc3ncc(C)s3)C(C)(C)C)C4(C)C)cc2c1` (stereo in doubt) [Compound 152, (1R,2S,5S)—N-(1-Cyano-2-(6-methyl-2-oxo-1,2-dihydroquinolin-3-yl)ethyl)-3-((S)-3,3-dimethyl-2-((5-methylthiazol-2-yl)amino)butanoyl)-6,6-dimethyl-3-azabicyclo[3.1.0]hexane-2-carboxamide]: the IC50 is 100 to 250 nM.

Take `Cc1ccc2[nH]c(=O)c(CC(C#N)NC(=O)[C@@H]3C4[C@H](CN3C(=O)[C@@H](Nc3nccc(C(F)(F)F)n3)C(C)(C)C)C4(C)C)cc2c1` (stereo in doubt) [Compound 156, (1R,2S,5S)—N-(1-Cyano-2-(6-methyl-2-oxo-1,2-dihydroquinolin-3-yl)ethyl)-3-((S)-3,3-dimethyl-2-((4-(trifluoromethyl)pyrimidin-2-yl)amino)butanoyl)-6,6-dimethyl-3-azabicyclo[3.1.0]hexane-2-carboxamide]: the concentration for half-maximal inhibition (IC50) was no less than 1000 nM.

In the case of `Cc1ccc2[nH]c(=O)c(C[C@@H](C#N)NC(=O)[C@@H]3C4[C@H](CN3C(=O)[C@@H](Nc3nc(C)cs3)C(C)(C)C)C4(C)C)cc2c1` (stereo in doubt) [Compound 157, (1R,2S,5S)—N—((S)-1-Cyano-2-(6-methyl-2-oxo-1,2-dihydroquinolin-3-yl)ethyl)-3-((S)-3,3-dimethyl-2-((4-methylthiazol-2-yl)amino)butanoyl)-6,6-dimethyl-3-azabicyclo[3.1.0]hexane-2-carboxamide], the IC50 was 250 to 500 nM.

As for `Cc1ccc2[nH]c(=O)c(C[C@@H](C#N)NC(=O)[C@@H]3C4[C@H](CN3C(=O)[C@@H](Nc3ncc(C)s3)C(C)(C)C)C4(C)C)cc2c1` (stereo in doubt) [Compound 158, (1R,2S,5S)—N—((S)-1-Cyano-2-(6-methyl-2-oxo-1,2-dihydroquinolin-3-yl)ethyl)-3-((S)-3,3-dimethyl-2-((5-methylthiazol-2-yl)amino)butanoyl)-6,6-dimethyl-3-azabicyclo[3.1.0]hexane-2-carboxamide], the IC50 lay within 50 to 100 nM.

As to `Cc1ccc2[nH]c(=O)c(C[C@@H](C#N)NC(=O)[C@@H]3C4[C@H](CN3C(=O)[C@@H](Nc3ccnc(C)n3)C(C)(C)C)C4(C)C)cc2c1` (stereo in doubt) [Compound 159, (1R,2S,5S)—N—((S)-1-Cyano-2-(6-methyl-2-oxo-1,2-dihydroquinolin-3-yl)ethyl)-3-((S)-3,3-dimethyl-2-((2-methylpyrimidin-4-yl)amino)butanoyl)-6,6-dimethyl-3-azabicyclo[3.1.0]hexane-2-carboxamide], the IC50 was no less than 1000 nM.

In the case of `Cc1ccc2[nH]c(=O)c(C[C@@H](C#N)NC(=O)[C@@H]3C4[C@H](CN3C(=O)[C@@H](Nc3nccc(C)n3)C(C)(C)C)C4(C)C)cc2c1` (stereo in doubt) [Compound 160, (1R,2S,5S)—N—((S)-1-Cyano-2-(6-methyl-2-oxo-1,2-dihydroquinolin-3-yl)ethyl)-3-((S)-3,3-dimethyl-2-((4-methylpyrimidin-2-yl)amino)butanoyl)-6,6-dimethyl-3-azabicyclo[3.1.0]hexane-2-carboxamide], the IC50 is no less than 1000 nM.

Consider `Cc1ccc2[nH]c(=O)c(C[C@@H](C#N)NC(=O)[C@@H]3C4[C@H](CN3C(=O)[C@@H](Nc3ccnc(C(F)(F)F)n3)C(C)(C)C)C4(C)C)cc2c1` (stereo in doubt) [Compound 161, (1R,2S,5S)—N—((S)-1-Cyano-2-(6-methyl-2-oxo-1,2-dihydroquinolin-3-yl)ethyl)-3-((S)-3,3-dimethyl-2-((2-(trifluoromethyl)pyrimidin-4-yl)amino)butanoyl)-6,6-dimethyl-3-azabicyclo[3.1.0]hexane-2-carboxamide], for which the IC50 was no less than 1000 nM.

Regarding `Cc1ccc2[nH]c(=O)c(CC(C#N)NC(=O)[C@@H]3C4[C@H](CN3C(=O)[C@@H](NC(=O)OC(C)(C)C)C(C)(C)C)C4(C)C)cc2c1` (stereo in doubt) [Compound 171, tert-Butyl ((2S)-1-((1R,2S,5S)-2-((1-cyano-2-(6-methyl-2-oxo-1,2-dihydroquinolin-3-yl)ethyl)carbamoyl)-6,6-dimethyl-3-azabicyclo[3.1.0]hexan-3-yl)-3,3-dimethyl-1-oxobutan-2-yl)carbamate], the IC50 was 250 to 500 nM.

As to `COC(=O)N[C@@H](C(=O)N1CC2C(C1C(=O)N[C@@H](C#N)Cc1cc3cc(C)ccc3[nH]c1=O)C2(C)C)C(C)(C)C` (stereo in doubt) [Compound 200, Methyl N-[(1R)-1-[(1S)-2-[[(1R)-1-cyano-2-(6-methyl-2-oxo-1H-quinolin-3-yl)ethyl]carbamoyl]-6,6-dimethyl-3-azabicyclo[3.1.0]hexane-3-carbonyl]-2,2-dimethyl-propyl]carbamate], the IC50 was less than 50 nM.

(Values after patent publication US20260015337A1 (Trawsfynydd Therapeutics, Inc., priority 2022, published 2026).)
